Assay results from patent US7196110B2, “N-substituted tricyclic 3-aminopyrazoles as inhibitors for the treatment of cell proliferative disorders” (Janssen Phamaceutica N.V., priority 2002, dated 2007).
Like-named read-outs stand apart in the source and are kept apart here.

Biological target: T1, PDGF-receptor beta enzyme comprising the tyrosine kinase domain (Homo sapiens, UniProt P09619)
T1 construct: from amino acid 545 to 1106 of GenBank Access NO: AAA36427
Assay: Inhibition of PDGF-receptor kinase activity (cell-free, PLC1 peptide, 33P Flashplate)
Type: biochemical
Settings: for inhibition at 10 µM: compound at 10 uM, read-out: Percent Inhibition @ 10 uM
How it was run: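 Recombinant kinase domain (aa 545–1106) phosphorylated a biotinylated PLC1 peptide with 5 μM ATP plus 33P-γ-ATP, in Tris pH 8, MgCl2, Na3VO4 and 1 mM DTT, for 60 min at 30 °C. Retained 33P was counted after washing. IC50 is the concentration halving activity versus no-inhibitor reactions.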

[1] = PDGF-R kinase activity, read-out: IC50

T1 sequence (P09619 545-1106): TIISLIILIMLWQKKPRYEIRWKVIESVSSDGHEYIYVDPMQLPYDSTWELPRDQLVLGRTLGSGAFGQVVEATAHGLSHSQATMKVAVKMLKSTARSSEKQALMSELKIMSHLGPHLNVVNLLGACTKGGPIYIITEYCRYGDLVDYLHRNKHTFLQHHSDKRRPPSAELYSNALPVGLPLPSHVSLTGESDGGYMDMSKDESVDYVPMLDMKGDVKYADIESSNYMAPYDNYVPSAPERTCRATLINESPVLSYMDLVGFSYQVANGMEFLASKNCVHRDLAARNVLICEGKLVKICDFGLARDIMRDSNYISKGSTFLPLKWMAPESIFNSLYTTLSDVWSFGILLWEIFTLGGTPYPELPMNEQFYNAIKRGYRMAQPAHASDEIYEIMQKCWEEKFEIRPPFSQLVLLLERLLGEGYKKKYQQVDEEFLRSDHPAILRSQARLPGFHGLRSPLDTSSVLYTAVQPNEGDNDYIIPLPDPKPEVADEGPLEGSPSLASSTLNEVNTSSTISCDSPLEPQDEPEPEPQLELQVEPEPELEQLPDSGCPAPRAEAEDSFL

How did the inhibition at 10 µM (PDGF-R kinase activity) turn out when `CCCCCCCCCCCCCCCNC(=O)n1nc2c(c1Nc1cccc(F)c1)Cc1cc(OC)c(OC)cc1-2` [Compound 598, 3-(3-Fluoro-phenylamino)-6,7-dimethoxy-4H-indeno[1,2-c]pyrazole-2-carboxylic acid pentadecylamide] was run?
Its inhibition at 10 µM is 0%.

What about the IC50 (read-out: IC50 (μM) on PDGF-R kinase activity) of the same molecule?
Its IC50 is 98.4 µM.

Which results are given for `COc1cc2c(cc1OC)-c1n[nH]c(Nc3cccc(C(C)O)c3)c1C2` (centres unmarked) [Compound 278, 1-[3-(6,7-Dimethoxy-2,4-dihydro-indeno[1,2-c]pyrazol-3-ylamino)-phenyl]-ethanol]?
inhibition at 10 µM (PDGF-R kinase activity): 97%; IC50 [1]: 0.0295 µM

`CCOc1cccc(Nc2[nH]nc3c2Cc2cc(OCC)c(OCC)cc2-3)c1` [Compound 375, (6,7-Diethoxy-2,4-dihydro-indeno[1,2-c]pyrazol-3-yl)-(3-ethoxy-phenyl)-amine] was tested. Which inhibition at 10 µM (PDGF-R kinase activity) did it give?
Its inhibition at 10 µM is 96.5%.

What about the IC50 [1] of the same molecule?
The IC50 was 0.103 µM.

Which results are given for `CCOc1cc2c(cc1OCC)C(C)c1c-2n[nH]c1Nc1cccc(F)c1` (centres unmarked) [Compound 344, (6,7-Diethoxy-4-methyl-2,4-dihydro-indeno[1,2-c]pyrazol-3-yl)-(3-fluoro-phenyl)-amine]?
inhibition at 10 µM (PDGF-R kinase activity): 100%; IC50 [1]: 0.0647 µM

`CCOc1cc2c(cc1OCC)C(C)c1c-2n[nH]c1Nc1cccnc1` (centres unmarked) [Compound 345, (6,7-Diethoxy-4-methyl-2,4-dihydro-indeno[1,2-c]pyrazol-3-yl)-pyridin-3-yl-amine] was tested. Which inhibition at 10 µM (PDGF-R kinase activity) did it give?
The inhibition at 10 µM was 88%.

And the IC50 [1]?
The IC50 was 0.0893 µM.

Which results are given for `COc1ccc(OC)c(Nc2[nH]nc3c2Cc2ccc(OC)cc2-3)c1` [Compound 174, (2,5-Dimethoxy-phenyl)-(7-methoxy-2,4-dihydro-indeno[1,2-c]pyrazol-3-yl)-amine]?
inhibition at 10 µM (PDGF-R kinase activity): 83%; IC50 [1]: 0.346 µM

With `Fc1cccc(Nc2n[nH]c3c2Cc2sccc2-3)c1` [Compound 335, (5,7-Dihydro-1-thia-4,5-diaza-cyclopenta[a]pentalen-6-yl)-(3-fluoro-phenyl)-amine] as the molecule, how does the inhibition at 10 µM (PDGF-R kinase activity) read?
Its inhibition at 10 µM is 100%.

What about the IC50 [1] of the same molecule?
The IC50 was 0.129 µM.

With `COc1cc2c(cc1F)Cc1c-2n[nH]c1NCc1ccccc1F` [Compound 426, (2-Fluoro-benzyl)-(6-fluoro-7-methoxy-2,4-dihydro-indeno[1,2-c]pyrazol-3-yl)-amine] as the molecule, how does the inhibition at 10 µM (PDGF-R kinase activity) read?
Its inhibition at 10 µM is 97%.

What about the IC50 [1] of the same molecule?
The IC50 was 0.241 µM.

Which inhibition at 10 µM (PDGF-R kinase activity) does the source give for `CCOc1cc2c(cc1OCC)-c1n[nH]c(NCc3c(Cl)cccc3Cl)c1C2` [Compound 295, (2,6-Dichloro-benzyl)-(6,7-diethoxy-2,4-dihydro-indeno[1,2-c]pyrazol-3-yl)-amine] here?
Its inhibition at 10 µM is 81.5%.

What about the IC50 [1] of the same molecule?
The IC50 was 0.00164 µM.

Which results are given for `COc1cc2c(cc1OC)C(C)(C)c1c-2n[nH]c1Nc1cccc(Cl)c1` [Compound 486, (3-Chloro-phenyl)-(6,7-dimethoxy-4,4-dimethyl-2,4-dihydro-indeno[1,2-c]pyrazol-3-yl)-amine]?
inhibition at 10 µM (PDGF-R kinase activity): 34.5%; IC50 [1]: 15.8 µM

`CCOc1cc2c(cc1OCC)-c1n[nH]c(NCc3cccc(F)c3)c1C2` [Compound 294, (6,7-Diethoxy-2,4-dihydro-indeno[1,2-c]pyrazol-3-yl)-(3-fluoro-benzyl)-amine] was tested. Which inhibition at 10 µM (PDGF-R kinase activity) did it give?
Its inhibition at 10 µM is 81%.

What about the IC50 [1] of the same molecule?
The IC50 was 0.264 µM.

For `Fc1ccc(C(F)(F)F)cc1Nc1[nH]nc2c1Cc1ccccc1-2` [Compound 340, (2,4-Dihydro-indeno[1,2-c]pyrazol-3-yl)-(2-fluoro-5-trifluoromethyl-phenyl)-amine], which inhibition at 10 µM (PDGF-R kinase activity) is on record?
The inhibition at 10 µM was 92.5%.

And the IC50 [1]?
The IC50 was 0.105 µM.

For `CC1c2ccccc2-c2n[nH]c(Nc3cccc(F)c3)c21` (centres unmarked) [Compound 108, (3-Fluoro-phenyl)-(4-methyl-2,4-dihydro-indeno[1,2-c]pyrazol-3-yl)-amine], which inhibition at 10 µM (PDGF-R kinase activity) is on record?
Its inhibition at 10 µM is 82%.

What about the IC50 [1] of the same molecule?
The IC50 was 0.3 µM.

For `COCCCOc1ccc2c(c1)Cc1c-2n[nH]c1Nc1cccc(OC)c1` [Compound 139, (3-Methoxy-phenyl)-[6-(3-methoxy-propoxy)-2,4-dihydro-indeno[1,2-c]pyrazol-3-yl]-amine], which inhibition at 10 µM (PDGF-R kinase activity) is on record?
The inhibition at 10 µM was 80%.

And the IC50 [1]?
Its IC50 is 0.0982 µM.

`Fc1ccc2c(c1)Cc1c-2n[nH]c1Nc1cc(F)ccc1F` [Compound 236, (2,5-Difluoro-phenyl)-(6-fluoro-2,4-dihydro-indeno[1,2-c]pyrazol-3-yl)-amine] was tested. Which inhibition at 10 µM (PDGF-R kinase activity) did it give?
Its inhibition at 10 µM is 82%.

And the IC50 [1]?
The IC50 was 0.005 µM.

`COC(=O)Cn1nc2c(c1Nc1cccc(F)c1)Cc1cc(OC)c(OC)cc1-2` [Compound 602, [3-(3-Fluoro-phenylamino)-6,7-dimethoxy-4H-indeno[1,2-c]pyrazol-2-yl]-acetic acid methyl ester] was tested. Which inhibition at 10 µM (PDGF-R kinase activity) did it give?
The inhibition at 10 µM was 40%.

Which inhibition at 10 µM (PDGF-R kinase activity) does the source give for `COc1ccc2c(c1)Cc1c-2n[nH]c1Nc1cccnc1` [Compound 84, (6-Methoxy-2,4-dihydro-indeno[1,2-c]pyrazol-3-yl)-pyridin-3-yl-amine] here?
The inhibition at 10 µM was 86%.

What about the IC50 [1] of the same molecule?
Its IC50 is 0.71 µM.

`COCn1nc(Nc2cccc(F)c2)c2c1-c1cc(OC)c(OC)cc1C2` [Compound 472, (6,7-Dimethoxy-1-methoxymethyl-1,4-dihydro-indeno[1,2-c]pyrazol-3-yl)-(3-fluoro-phenyl)-amine] was tested. Which inhibition at 10 µM (PDGF-R kinase activity) did it give?
The inhibition at 10 µM was 35%.

How did the inhibition at 10 µM (PDGF-R kinase activity) turn out when `COc1cc2c(cc1OC)-c1c(c(Nc3cccc(F)c3)nn1C(=O)NCCNC(=O)C(C)C)C2` [Compound 525, 3-(3-Fluoro-phenylamino)-6,7-dimethoxy-4H-indeno[1,2-c]pyrazole-1-carboxylic acid (2-isobutyrylamino-ethyl)-amide] was run?
Its inhibition at 10 µM is 33%.

And the IC50 [1]?
Its IC50 is 43.2 µM.

For `OCCCOc1cccc2c1Cc1c-2n[nH]c1NCc1ccccc1F` [Compound 444, 3-[3-(2-Fluoro-benzylamino)-2,4-dihydro-indeno[1,2-c]pyrazol-5-yloxy]-propan-1-ol], which inhibition at 10 µM (PDGF-R kinase activity) is on record?
Its inhibition at 10 µM is 79.5%.

What about the IC50 [1] of the same molecule?
Its IC50 is 0.518 µM.

Which inhibition at 10 µM (PDGF-R kinase activity) does the source give for `CCOc1cc2c(cc1OCCCO)-c1n[nH]c(Nc3cccc(OC)c3)c1C2` [Compound 366, 3-[6-Ethoxy-3-(3-methoxy-phenylamino)-2,4-dihydro-indeno[1,2-c]pyrazol-7-yloxy]-propan-1-ol] here?
Its inhibition at 10 µM is 100%.

What about the IC50 [1] of the same molecule?
The IC50 was 0.0121 µM.

Which results are given for `COc1cc2c(cc1OC)C(C)c1c(Nc3cccc(Br)c3)nn(C(=O)OCCOCCOCCO)c1-2` (centres unmarked) [Compound 548, 3-(3-Bromo-phenylamino)-6,7-dimethoxy-4-methyl-4H-indeno[1,2-c]pyrazole-1-carboxylic acid 2-[2-(2-hydroxy-ethoxy)-ethoxy]-ethyl ester]?
inhibition at 10 µM (PDGF-R kinase activity): 82.5%; IC50 [1]: 0.214 µM

With `COc1cccc2c1Cc1c-2n[nH]c1NCc1c(F)cccc1F` [Compound 423, (2,6-Difluoro-benzyl)-(5-methoxy-2,4-dihydro-indeno[1,2-c]pyrazol-3-yl)-amine] as the molecule, how does the inhibition at 10 µM (PDGF-R kinase activity) read?
The inhibition at 10 µM was 90%.

And the IC50 [1]?
The IC50 was 0.181 µM.

What does the source list for `C=C(C)C(=O)OCCNC(=O)n1nc(Nc2cccc(F)c2)c2c1-c1cc(OC)c(OC)cc1C2` [Compound 527, 2-Methyl-acrylic acid 2-{[3-(3-fluoro-phenylamino)-6,7-dimethoxy-4H-indeno[1,2-c]pyrazole-1-carbonyl]-amino}-ethyl ester]?
inhibition at 10 µM (PDGF-R kinase activity): 46.5%; IC50 [1]: 17.5 µM

How did the inhibition at 10 µM (PDGF-R kinase activity) turn out when `CCC1c2cc(OC)c(OC)cc2-c2n[nH]c(Nc3cccc(F)c3)c21` (centres unmarked) [Compound 421, (4-Ethyl-6,7-dimethoxy-2,4-dihydro-indeno[1,2-c]pyrazol-3-yl)-(3-fluoro-phenyl)-amine] was run?
Its inhibition at 10 µM is 100%.

What about the IC50 [1] of the same molecule?
The IC50 was 0.0822 µM.

What does the source list for `COc1cc2c(cc1OC)-c1n[nH]c(Nc3ccc4c(c3)CCC4)c1C2` [Compound 79, (6,7-Dimethoxy-2,4-dihydro-indeno[1,2-c]pyrazol-3-yl)-indan-5-yl-amine]?
inhibition at 10 µM (PDGF-R kinase activity): 56%; IC50 [1]: 3.71 µM
